{"source": "patent US20090123389A1", "about": "“Methods for modulating Th17 cell development in the treatment and prevention of cellulite” (priority 2007, published 2009)", "key": {"[1]": {"tested_on": "B220+ B cells or CD8+ T cells", "test": "B cell and CD8+ T cell proliferation and function", "type": "cell-based, mouse", "settings": "HF 1.25-40 nM titrated", "experimental": "The non-specific effects of HF on B and CD8+ T cells were evaluated. B220+B cells or CD8+ T cells were isolated from the spleen and peripheral lymph nodes of C57B/6 mice. B cell proliferation and IL-6 production was induced by culturing the cells with LPS (0.5 μg/ml) for 4 days. The effects of HF on B cell function was determined by adding titrating amounts of HF (1.25 nM-40 nM) at the time of LPS stimulation. B cell proliferation was monitored by labeling cells with Carboxyfluorescein diacetate, succinimidyl ester (CFSE; 5 μM) prior to LPS stimulation and determining the rate of CFSE dilution after 4 days by flow cytometric analyses. LPS-induced IL-6 production by B cells was determined by intracellular staining on day 4, following PMA+Ionomycin+Brefeldin A re-stimulation as described above. For CD8+ T cell experiments, purified CD8+ T cells were labeled with CFSE as above and the T cells were activated using anti-CD3 (1 μg/ml) and anti-CD28 (1 μg/ml) antibodies. […] CD8+ T cell proliferation was determined by monitoring CFSE dilution on day 3-post activation; CD25 expression was determined by FACS staining on day 2 of culture; differentiation of CD8+ T cells into cytolytic T cells (CTL) was evaluated on day 4 by determining expression of IFNγ and granzyme B following PMA+Ionomycin+Brefeldin A re-stimulation. […]"}, "[2]": {"tested_on": "CD4+ CD25− T cells", "test": "Foxp3 (Treg marker) expression in TGFβ/IL-6 treated T cells", "type": "cell-based, mouse", "experimental": "Low doses of halofuginone (HF) were tested to determine the ability of HF to enhance Treg differentiation, while suppressing Th17 differentiation. Naïve CD4+ T cells (CD4+ CD25−) were isolated from the spleen and peripheral lymph nodes of C57B/6 mice. T cells were then activated using anti-CD3 (0.3 μg/ml) and anti-CD28 (0.5 μg/ml) antibodies either in media alone (row 1, 4), TGFβ alone (3 ng/ml—row 2, 5) or TGFβ (3 ng/ml) plus IL-6 (30 ng/ml) (row 3, 6). […] T cells were cultured for 3 days and CD25 and Foxp3 expression (Treg marker genes) was determine by FACS staining and flow cytometric analyses. Simultaneously, T cells were harvested and re-stimulated for 4 hours using phorbol myristic acetate (PMA; 10 nM), Ionomycin (1 μM) and cytokine secretion was prevented using brefeldin A (20 μg/ml). Following stimulation, the production of IL-17 and IFNγ were determined by intracellular staining and analyzed via flow cytometry. […]\nFACS analyses and sorting: All cell surface staining was performed in FACS buffer (PBS/2% FCS/0.1% NaN3) and antibodies were incubated with cells on ice for 20-30 minutes. […] All FACS data was acquired on a FACSCalibur flow cytometer (BD Pharmingen) and analyzed using FlowJo software (Treestar, Inc., Ashland, Oreg.). […]"}, "[3]": {"tested_on": "human peripheral blood T cells", "settings": "cited from earlier work"}}, "note": "Where “and” joins values, the source holds several entries; their conditions need not be identical. Identical values can stand only once."}
{"smiles": "O=C(CC1NCCCC1O)Cn1cnc2cc(Br)c(Cl)cc2c1=O", "note": "(racemic) [HF, 7-bromo-6-chloro-3-[3-(3-hydroxy-2-piperidinyl)-2-oxopropyl]-4(3H)-quinazolinone]", "values": [{"measurement": "doses at which B and CD8+ T cell proliferation and function were profoundly impaired", "setting": "[1]", "result": "greater than 20 nM"}, {"measurement": "doses with little or no effect on B and CD8+ T cell function or proliferation", "setting": "[1]", "result": "lower than 10 nM"}, {"measurement": "Foxp3 expression of T cells differentiated in the presence of HF", "setting": "[2]; 10 nM HF, TGFβ plus IL-6, day 3", "result": "enhanced Foxp3 expression"}, {"measurement": "HF concentration that increased expression of the Treg marker FoxP3", "setting": "[2]; TGFβ/IL-6 treated T-cells, 3 days", "result": "2.5 to 10 nM and 2.2 to 10 nM"}, {"measurement": "NFkB activation and T-cell secretion of cytokines", "setting": "[3]; 80 nM HF, crude preparation of primary T-cells", "result": "broadly suppress"}, {"measurement": "IC50", "setting": "[3]; Lieba studies, read-out: 50% inhibition of cytokine secretion, NF-kB activation, p38 phosphorylation", "result": "20 to 40", "unit": "nM"}, {"measurement": "levels of cytokine secretion, NF-kB activation and p38 phosphorylation", "setting": "[3]; anti-CD3 activated T cells", "result": "generally reduced levels"}]}
